Reference: ChEMBL document CHEMBL5335794, “Discovery of novel multifunctional ligands targeting GABA transporters, butyrylcholinesterase, β-secretase, and amyloid β aggregation as potential treatment of Alzheimer's disease” (Eur J Med Chem, 2023)

How the values were obtained:
[1] = target: T1, Sodium- and chloride-dependent GABA transporter 1 (Mus musculus, UniProt P31648); assay: Inhibition of NO 711 marker binding to mouse GAT1 by LC-ESI-MS/MS based competitive MS binding assay
[2] = target: T2, GABA transporter 2 (Mus musculus) (UniProt P31651); assay: Inhibition of mouse GAT2 transfected in HEK293 cells assessed as reduction in [3H]-GABA uptake by measuring residual activity at 100 uM preincubated for 25 mins followed by [3H]-GABA addition and measured after 10 mins by liquid scintillation counting analysis relative to control; assay type: cell-based; settings: time 35.0 min
T2 sequence (whole entry): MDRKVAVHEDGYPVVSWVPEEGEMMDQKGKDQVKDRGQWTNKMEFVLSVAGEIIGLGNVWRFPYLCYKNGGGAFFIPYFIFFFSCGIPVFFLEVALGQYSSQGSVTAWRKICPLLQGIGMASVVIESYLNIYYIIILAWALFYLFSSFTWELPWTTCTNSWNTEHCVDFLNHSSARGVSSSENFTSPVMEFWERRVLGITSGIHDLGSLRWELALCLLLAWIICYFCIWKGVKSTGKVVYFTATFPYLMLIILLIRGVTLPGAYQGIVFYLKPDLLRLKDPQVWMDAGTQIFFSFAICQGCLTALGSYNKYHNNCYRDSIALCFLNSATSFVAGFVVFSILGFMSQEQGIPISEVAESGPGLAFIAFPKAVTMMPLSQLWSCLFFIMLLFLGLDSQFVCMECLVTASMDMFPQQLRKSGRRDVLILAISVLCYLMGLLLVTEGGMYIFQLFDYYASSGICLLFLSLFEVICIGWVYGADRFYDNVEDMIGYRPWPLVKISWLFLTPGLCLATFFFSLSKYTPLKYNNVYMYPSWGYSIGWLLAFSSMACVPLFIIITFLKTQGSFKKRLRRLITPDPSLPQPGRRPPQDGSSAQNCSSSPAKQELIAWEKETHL

[3] = target: Acetylcholinesterase (Electrophorus electricus) (UniProt O42275); assay: Inhibition of electric eel AChE using acetylthiocholine iodide as substrate at 10 uM preincubated for 5 mins followed by substrate addition and measured after 5 mins by DTNB reagent based Ellman's method relative to control; settings: time 10.0 min
Cholinesterase = Cholinesterase (Equus caballus, UniProt P81908)
Description: Inhibition of equine serum BuChE using butyrylthiocholine iodide as substrate preincubated for 5 mins followed by substrate addition and measured after 5 mins by DTNB reagent based Ellman's method

[4] = Inhibition of mouse GAT3 transfected in HEK293 cells assessed as reduction in [3H]-GABA uptake preincubated for 25 mins followed by [3H]-GABA addition and measured after 4 mins by liquid scintillation counting analysis; assay type: cell-based; settings: HEK293
GABA transporter 4 [5] = target: T3, GABA transporter 4 (Mus musculus, UniProt P31650); assay: Inhibition of mouse GAT4 transfected in HEK293 cells assessed as reduction in [3H]-GABA uptake preincubated for 25 mins followed by [3H]-GABA addition and measured after 4 mins by liquid scintillation counting analysis; assay type: cell-based
T3 sequence (P31650 whole entry): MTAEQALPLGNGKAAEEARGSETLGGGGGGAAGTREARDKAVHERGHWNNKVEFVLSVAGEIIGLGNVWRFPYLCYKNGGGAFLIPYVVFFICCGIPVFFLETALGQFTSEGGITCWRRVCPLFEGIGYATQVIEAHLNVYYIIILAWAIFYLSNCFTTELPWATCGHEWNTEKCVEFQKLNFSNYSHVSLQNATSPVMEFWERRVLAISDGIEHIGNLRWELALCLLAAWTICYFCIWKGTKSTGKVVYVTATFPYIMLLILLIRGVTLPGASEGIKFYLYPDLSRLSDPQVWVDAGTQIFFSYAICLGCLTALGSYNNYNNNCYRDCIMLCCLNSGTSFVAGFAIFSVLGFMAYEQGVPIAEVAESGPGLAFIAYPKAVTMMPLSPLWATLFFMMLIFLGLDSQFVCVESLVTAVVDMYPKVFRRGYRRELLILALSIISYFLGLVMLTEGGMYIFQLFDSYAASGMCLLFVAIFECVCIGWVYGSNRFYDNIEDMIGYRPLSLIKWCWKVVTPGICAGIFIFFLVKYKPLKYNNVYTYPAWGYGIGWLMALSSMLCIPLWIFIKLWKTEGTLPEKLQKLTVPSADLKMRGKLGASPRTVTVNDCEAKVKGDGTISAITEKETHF

[6] = target: T1, Sodium- and chloride-dependent GABA transporter 1; assay: Inhibition of mouse GAT1 transfected in HEK293 cells assessed as reduction in [3H]-GABA uptake preincubated for 25 mins followed by [3H]-GABA addition and measured after 4 mins by liquid scintillation counting analysis; assay type: cell-based
[7] = target: Sodium- and chloride-dependent GABA transporter 1 (Mus musculus) (UniProt P31648); assay: Inhibition of NO 711 marker binding to mouse GAT1 assessed as residual activity at 100 uM by LC-ESI-MS/MS based competitive MS binding assay relative to control
[8] = target: Cholinesterase (Equus caballus) (UniProt P81908); assay: Inhibition of equine serum BuChE using butyrylthiocholine iodide as substrate at 10 uM preincubated for 5 mins followed by substrate addition and measured after 5 mins by DTNB reagent based Ellman's method relative to control; settings: time 10.0 min
[9] = target: Sodium- and chloride-dependent GABA transporter 1 (Mus musculus) (UniProt P31648); assay: Inhibition of mouse GAT1 transfected in HEK293 cells assessed as reduction in [3H]-GABA uptake by measuring residual activity at 100 uM preincubated for 25 mins followed by [3H]-GABA addition and measured after 4 mins by liquid scintillation counting analysis relative to control; assay type: cell-based; settings: time 29.0 min
Beta-secretase 1 [10] = target: T4, Beta-secretase 1 (Homo sapiens, UniProt P56817); settings: dose 50.0 µM, time 60.0 min
Beta-secretase 1 [11] = target: T4, Beta-secretase 1
[12] = target: T5, GABA transporter 4 (Mus musculus) (UniProt P31650); assay: Inhibition of mouse GAT4 transfected in HEK293 cells assessed as reduction in [3H]-GABA uptake by measuring residual activity at 100 uM preincubated for 25 mins followed by [3H]-GABA addition and measured after 4 mins by liquid scintillation counting analysis relative to control; assay type: cell-based; settings: time 29.0 min
T5 sequence (whole entry): T3 sequence (P31650 whole entry)

[13] = target: Amyloid-beta precursor protein (Homo sapiens) (UniProt P05067); assay: Inhibition of amyloid beta42 (unknown origin) aggregation expressed in Escherichia coli BL21 (DE3) at 10 uM measured every 5 mins by ThT fluorescence based assay relative to control
GABA transporter 2 [14] = target: T6, GABA transporter 2 (Mus musculus, UniProt P31651); assay: Inhibition of mouse GAT2 transfected in HEK293 cells assessed as reduction in [3H]-GABA uptake preincubated for 25 mins followed by [3H]-GABA addition and measured after 10 mins by liquid scintillation counting analysis; assay type: cell-based
T6 sequence (P31651 whole entry): T2 sequence (whole entry)

[15] = target: Amyloid-beta precursor protein (Homo sapiens) (UniProt P05067); assay: Inhibition of amyloid beta40 (unknown origin) aggregation at 10 uM measured every 5 mins by ThT fluorescence based assay relative to control
[16] = target: T1, Sodium- and chloride-dependent GABA transporter 1
GABA transporter 2 [17] = target: T6, GABA transporter 2
GABA transporter 4 [18] = target: T3, GABA transporter 4

Sequence of Acetylcholinesterase (Electrophorus electricus) (O42275 24-633 limits assumed): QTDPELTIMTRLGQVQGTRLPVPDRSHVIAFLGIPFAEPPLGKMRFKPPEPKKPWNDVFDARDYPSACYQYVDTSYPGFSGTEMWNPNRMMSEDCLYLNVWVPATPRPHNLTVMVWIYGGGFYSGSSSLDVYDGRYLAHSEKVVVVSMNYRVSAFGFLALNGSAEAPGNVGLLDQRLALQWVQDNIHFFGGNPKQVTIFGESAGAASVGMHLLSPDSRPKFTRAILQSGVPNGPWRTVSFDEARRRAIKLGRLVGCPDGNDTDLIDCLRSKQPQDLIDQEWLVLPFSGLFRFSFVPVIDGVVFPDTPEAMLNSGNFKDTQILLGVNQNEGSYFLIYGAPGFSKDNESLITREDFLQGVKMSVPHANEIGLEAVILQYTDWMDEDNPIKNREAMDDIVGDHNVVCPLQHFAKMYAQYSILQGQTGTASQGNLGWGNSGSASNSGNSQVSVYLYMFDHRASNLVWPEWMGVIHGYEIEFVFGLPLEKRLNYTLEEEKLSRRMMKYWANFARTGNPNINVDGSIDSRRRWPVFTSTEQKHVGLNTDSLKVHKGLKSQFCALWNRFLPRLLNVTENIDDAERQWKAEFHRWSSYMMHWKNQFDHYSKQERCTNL
Sequence of Cholinesterase (P81908 whole entry): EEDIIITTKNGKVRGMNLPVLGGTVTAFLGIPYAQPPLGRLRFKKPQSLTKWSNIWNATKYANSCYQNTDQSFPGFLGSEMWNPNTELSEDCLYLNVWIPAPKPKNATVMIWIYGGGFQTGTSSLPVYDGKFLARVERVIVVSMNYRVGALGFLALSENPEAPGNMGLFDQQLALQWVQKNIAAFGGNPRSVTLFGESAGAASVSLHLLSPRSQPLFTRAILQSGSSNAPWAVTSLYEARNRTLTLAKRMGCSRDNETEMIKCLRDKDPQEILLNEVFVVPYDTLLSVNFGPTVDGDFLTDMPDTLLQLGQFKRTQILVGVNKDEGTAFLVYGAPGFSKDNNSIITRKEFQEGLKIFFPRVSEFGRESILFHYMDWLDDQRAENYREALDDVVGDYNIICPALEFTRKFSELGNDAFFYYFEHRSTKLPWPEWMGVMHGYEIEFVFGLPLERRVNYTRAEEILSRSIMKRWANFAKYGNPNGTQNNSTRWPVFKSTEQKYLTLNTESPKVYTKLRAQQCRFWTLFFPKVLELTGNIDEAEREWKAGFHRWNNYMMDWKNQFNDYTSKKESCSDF
T4 sequence (P56817 whole entry): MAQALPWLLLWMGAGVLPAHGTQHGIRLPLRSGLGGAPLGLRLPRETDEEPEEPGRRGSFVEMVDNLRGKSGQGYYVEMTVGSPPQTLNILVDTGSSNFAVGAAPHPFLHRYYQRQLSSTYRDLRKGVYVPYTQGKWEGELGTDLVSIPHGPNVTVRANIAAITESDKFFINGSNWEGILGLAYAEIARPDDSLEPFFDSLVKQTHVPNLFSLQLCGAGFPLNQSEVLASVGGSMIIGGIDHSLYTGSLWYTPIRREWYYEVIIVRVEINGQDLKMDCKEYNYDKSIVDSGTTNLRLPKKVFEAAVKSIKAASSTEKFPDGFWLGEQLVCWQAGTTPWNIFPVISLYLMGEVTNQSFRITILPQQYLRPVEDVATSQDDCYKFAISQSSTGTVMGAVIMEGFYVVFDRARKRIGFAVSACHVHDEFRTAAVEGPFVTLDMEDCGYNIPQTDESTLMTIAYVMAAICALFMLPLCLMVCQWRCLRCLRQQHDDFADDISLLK
Sequence of Amyloid-beta precursor protein (Homo sapiens) (P05067 whole entry): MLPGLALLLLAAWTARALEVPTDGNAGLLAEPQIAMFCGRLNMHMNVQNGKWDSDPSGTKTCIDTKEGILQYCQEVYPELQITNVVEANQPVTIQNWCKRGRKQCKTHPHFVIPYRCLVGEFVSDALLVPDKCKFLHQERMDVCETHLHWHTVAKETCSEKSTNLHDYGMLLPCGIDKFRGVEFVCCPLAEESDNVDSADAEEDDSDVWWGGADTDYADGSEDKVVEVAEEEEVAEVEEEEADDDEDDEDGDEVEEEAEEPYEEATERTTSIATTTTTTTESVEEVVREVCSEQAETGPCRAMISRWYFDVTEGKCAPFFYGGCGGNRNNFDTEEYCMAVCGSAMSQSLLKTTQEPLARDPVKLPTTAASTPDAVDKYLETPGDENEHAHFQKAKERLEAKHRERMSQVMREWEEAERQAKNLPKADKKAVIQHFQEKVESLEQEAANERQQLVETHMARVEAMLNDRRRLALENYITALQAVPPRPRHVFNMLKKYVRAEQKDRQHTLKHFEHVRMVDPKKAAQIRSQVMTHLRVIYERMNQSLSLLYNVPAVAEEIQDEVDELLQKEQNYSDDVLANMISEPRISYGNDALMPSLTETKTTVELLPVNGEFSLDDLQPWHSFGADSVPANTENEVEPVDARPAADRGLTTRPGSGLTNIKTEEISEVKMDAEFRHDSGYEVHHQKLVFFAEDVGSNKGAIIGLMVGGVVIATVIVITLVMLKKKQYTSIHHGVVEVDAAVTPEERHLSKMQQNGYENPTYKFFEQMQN
Sequence of Cholinesterase (Equus caballus) (P81908 whole entry): as the sequence (P81908 whole entry) above

Compound | Ki [1] | Activity [2] | inhibition [3] | IC50 (Cholinesterase) | IC50 ([4]; read-out: pIC50 (converted)) | IC50 ([6]; read-out: pIC50 (converted)) | IC50 (GABA transporter 4 [5]; read-out: pIC50 (converted)) | other results
CN(CCC=C(c1ccccc1)c1ccccc1)C(=O)C1Cc2c([nH]c3ccccc23)CN1 (stereo not given) | 79.4 µM | 55% | 38% | 3.13 µM | 4.07 µM | 12 µM |  | IC50 ([4]; read-out: IC50): 4.1 µM; IC50 (GABA transporter 4 [5]; read-out: IC50): 6.3 µM
CN(CC/C=C/c1ccccc1-c1ccc(Cl)cc1Cl)C(CCO)C(=O)NCc1ccccc1 (stereo not given) |  | 13% |  |  | 7.76 µM |  | 7.41 µM | Activity [7]: 49%; inhibition [8]: 47%; Activity [9]: 45%; inhibition (Beta-secretase 1 [10]): 52%
CN(CC/C=C/c1ccccc1-c1ccc(Cl)cc1Cl)C(CCN)C(=O)NCc1ccccc1 (stereo not given) | 28.2 µM | 18% |  | 1.43 µM | 6.61 µM |  | 7.41 µM | IC50 (Beta-secretase 1 [11]): 5.41 µM; IC50 ([6]; read-out: IC50): 5.5 µM
O=C(NC1CCN(C(c2ccccc2)c2ccccc2)CC1)C1CC2c3ccccc3NC2CN1 (stereo not given) |  | 57% | < 10% |  |  |  |  | Activity [7]: 73%; inhibition [8]: < 10%; Activity [12]: 89%; Activity [9]: 87%
CN(CCOCCN1c2ccccc2Sc2ccccc21)C(CCN)C(=O)NCc1ccccc1 (stereo not given) | 67.6 µM |  | < 10% | 0.35 µM | 10 µM | 15.8 µM | 15.1 µM | inhibition [13]: 34.9%; IC50 (GABA transporter 2 [14]; read-out: IC50): 3 µM; IC50 (Beta-secretase 1 [11]): 22.9 µM; inhibition [15]: 96.7%
CN(CCC=C(c1ccccc1)c1ccccc1)C(CO)C(=O)NCc1ccccc1Cl (stereo not given) |  |  |  |  |  |  |  | IC50 [16]: 19 µM; IC50 (GABA transporter 2 [17]): 13 µM; IC50 (GABA transporter 4 [18]): 10 µM
O=C(O)[C@@H]1CCCN(CCOCCN2c3ccccc3Sc3ccccc32)C1 |  |  |  |  |  |  |  | IC50 [16]: 0.3 µM
CN(CCOCCn1c2ccccc2c2ccccc21)C(CCN)C(=O)NCc1ccccc1Cl (stereo not given) | 93.3 µM |  | < 10% | 0.204 µM | 12.9 µM | 19.5 µM | 9.33 µM | inhibition [13]: 30.2%; IC50 (GABA transporter 2 [14]; read-out: pIC50 (converted)): 8.32 µM; inhibition [15]: 92.4%; inhibition (Beta-secretase 1 [10]): 79%
CN(CCOCCN1c2ccccc2Sc2ccccc21)C(CCO)C(=O)NCc1ccc(Cl)cc1 (stereo not given) |  | 55% | < 10% | 4.27 µM | 7.94 µM |  | 20.9 µM | Activity [7]: 96%; Activity [9]: 57%; inhibition (Beta-secretase 1 [10]): 44%
Cc1ccsc1C(=CCCN(C)[C@H]1CCCC[C@H]1C(=O)O)c1sccc1C |  |  |  |  |  |  |  | IC50 (GABA transporter 2 [17]): 21 µM
CN(CCOCCN1c2ccccc2Sc2ccccc21)C(CCN)C(=O)NCc1ccccc1Cl (stereo not given) | 57.5 µM |  | 14% | 0.411 µM | 6.17 µM | 12.6 µM | 8.71 µM | inhibition [13]: 27.1%; IC50 (GABA transporter 2 [14]; read-out: pIC50 (converted)): 6.61 µM; IC50 (Beta-secretase 1 [11]): 5.17 µM; inhibition [15]: 74%
CN(CCC=C(c1ccccc1)c1ccccc1)C(CN)C(=O)NCc1ccccc1Cl (stereo not given) |  |  |  |  |  |  |  | IC50 [16]: 13 µM; IC50 (GABA transporter 2 [17]): 6 µM; IC50 (GABA transporter 4 [18]): 9 µM
CC(CC(=O)O)NCCOCCN1c2ccccc2Sc2ccccc21 (stereo not given) |  |  |  |  |  |  |  | IC50 [16]: 9 µM
CN(CCOCCN1c2ccccc2Sc2ccccc21)C(CCN)C(=O)NCc1ccc(F)cc1 (stereo not given) | 77.6 µM |  | < 10% | 1.02 µM | 8.32 µM | 14.8 µM | 14.1 µM | inhibition [13]: 23.9%; IC50 (GABA transporter 2 [14]; read-out: pIC50 (converted)): 10.2 µM; IC50 (Beta-secretase 1 [11]): 5.35 µM; inhibition [15]: 74.7%
